Data from PubChem BioAssay (NCI).
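A five-concentration, 48-hour dose response in 96-well plates underlies each endpoint, interpolated linearly between surrounding concentrations. TGI is the concentration that stops growth completely.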 *1 amine or outer side, *2 acyl side, *3 side chain or, on linkers, in order; H or OH if unused. Where a SMILES comes first, the peptide text is derived from it. [ ]: non-standard residue; d: D form. The star is where a group is joined. X31 = CC(=O)N(C)SCC(N[*:1])C(=O)[*:2]; Fmoc = O=C(OCC1c2ccccc2-c2ccccc21)*; For = O=C*

Legend:
Assay in all cases: DTP human tumour cell line panel, 48 h
786-0 renal = tested on: 786-0 renal
NCI/ADR-RES ovarian = tested on: NCI/ADR-RES ovarian
OVCAR-3 ovarian = tested on: OVCAR-3 ovarian
SF-295 CNS = tested on: SF-295 CNS
SK-MEL-2 melanoma = tested on: SK-MEL-2 melanoma
CAKI-1 renal = tested on: CAKI-1 renal
SR leukemia = tested on: SR leukemia
SK-MEL-5 melanoma = tested on: SK-MEL-5 melanoma
HT29 colon = tested on: HT29 colon
SNB-19 CNS = tested on: SNB-19 CNS
RPMI-8226 leukemia = tested on: RPMI-8226 leukemia
NCI-H23 lung = tested on: NCI-H23 lung
OVCAR-4 ovarian = tested on: OVCAR-4 ovarian
KM12 colon = tested on: KM12 colon
HOP-92 NSCLC = tested on: HOP-92 NSCLC

SMILES	TGI (786-0 renal)	TGI (NCI/ADR-RES ovarian)	TGI (OVCAR-3 ovarian)	TGI (SF-295 CNS)	TGI (SK-MEL-2 melanoma)	TGI (CAKI-1 renal)	TGI (SR leukemia)	TGI (SK-MEL-5 melanoma)	TGI (HT29 colon)	TGI (SNB-19 CNS)	TGI (RPMI-8226 leukemia)	TGI (NCI-H23 lung)	TGI (OVCAR-4 ovarian)	TGI (KM12 colon)	TGI (HOP-92 NSCLC)
CCOC(=O)NC(=S)NC(C)c1ccccc1 (centres undefined)	> 100 µM	> 100 µM	> 100 µM	> 100 µM	> 100 µM	> 100 µM	> 100 µM	> 100 µM	> 100 µM	> 100 µM	> 100 µM	> 100 µM	> 100 µM	> 100 µM	
CSc1nc(C)c(CCCl)c(Cl)n1	> 100 µM	> 100 µM	> 100 µM	> 100 µM		> 100 µM		> 100 µM	> 100 µM	> 100 µM		> 100 µM	> 100 µM		
CC(=O)C1C(=O)C(=O)N(c2ccc(Br)cc2)C1=O (centres undefined)	> 100 µM	> 100 µM	> 100 µM	> 100 µM	> 100 µM	> 100 µM		> 100 µM	> 100 µM	> 100 µM		> 100 µM	> 100 µM	> 100 µM	> 100 µM
CN(C)C(=O)Oc1ccc(C(=S)Nc2ccccc2)cc1Br	> 100 µM	63.9 µM	> 100 µM	> 100 µM	71.5 µM	> 100 µM	63.3 µM	32.2 µM	65.1 µM	> 100 µM	73.9 µM	57.3 µM	> 100 µM	51.6 µM	
Cc1ccc(-n2cc(-c3ccc(Cl)cc3)c3c2N=CN2NC(c4cccs4)=NC32)cc1 (centres undefined)	15.5 µM	40.9 µM	35 µM	25.2 µM	33 µM	40.4 µM	> 100 µM	> 100 µM	> 100 µM	51.1 µM		52.3 µM	6.17 µM		24 µM
Cc1[nH]c2ccccc2c1C1=CC(=O)N(c2ccccc2)C1=O	31.4 µM	> 100 µM	> 100 µM	> 100 µM	31.5 µM	> 100 µM		21.9 µM	21.8 µM	> 100 µM	> 100 µM	60.9 µM			50.9 µM
CCN1C(=O)CS/C1=N\NC(=O)CSc1nc2ccccc2c(=O)n1CC	> 100 µM	> 100 µM	> 100 µM	> 100 µM	> 100 µM	> 100 µM	> 100 µM	> 100 µM		> 100 µM	> 100 µM	> 100 µM	> 100 µM	> 100 µM	
O=C(O)CCc1nc2cc3ccccc3cc2[nH]c1=O	> 100 µM	> 100 µM	> 100 µM	> 100 µM	> 100 µM	> 100 µM	> 100 µM	> 100 µM	> 100 µM	> 100 µM		> 100 µM	> 100 µM	> 100 µM	> 100 µM
COc1nc(OC)nc(Sc2ccc(Sc3ccc(Sc4nc(OC)nc(OC)n4)cc3)cc2)n1	> 100 µM		> 100 µM	> 100 µM	> 100 µM	> 100 µM	> 100 µM	> 100 µM	> 100 µM	> 100 µM	> 100 µM	> 100 µM	> 100 µM	> 100 µM	> 100 µM
COC1C(OC(N)=O)C(O)C(Oc2ccc3c(O)c(NC(=O)c4ccc(O)c(CC=C(C)C)c4)c(=O)oc3c2C)OC1(C)C (centres undefined)	> 100 µM	> 100 µM	> 100 µM		> 100 µM	> 100 µM	> 100 µM	> 100 µM	> 100 µM	> 100 µM	> 100 µM			> 100 µM	
CC(Cc1ccc2c(c1)OCO2)N(C)C(=O)C1=CCN(C)CC1 (centres undefined)	> 100 µM	> 100 µM	> 100 µM	> 100 µM	> 100 µM	> 100 µM	> 100 µM	> 100 µM	> 100 µM	> 100 µM	> 100 µM	> 100 µM	> 100 µM	> 100 µM	
CC#Cc1c(C#CC)c(OC)c2c(c1OC)C(=O)c1ccccc1C2=O	> 100 µM		> 100 µM	39.1 µM	> 100 µM	> 100 µM	> 100 µM	> 100 µM	> 100 µM	71.4 µM	> 100 µM	> 100 µM	> 100 µM	> 100 µM	
O=C1/C(=C/c2ccc(Cl)cc2)Sc2scc(-c3cccc([N+](=O)[O-])c3)[n+]21	6.49 µM		36 µM	17.9 µM	29.1 µM	6.85 µM	2.42 µM	12.9 µM	> 45 µM	38.9 µM	3.99 µM	12.9 µM	28.1 µM	13.1 µM	5.39 µM
CC(=O)N(C)SCC(NC(=O)C(Cc1ccccc1)NC(=O)OCC1c2ccccc2-c2ccccc21)C(=O)NC(Cc1ccccc1)C(=O)NC(Cc1cn(C=O)c2ccccc12)C(=O)NC(CCCCNC(=O)OCC1c2ccccc2-c2ccccc21)C(=O)NC(C(=O)NC(CSN(C)C(C)=O)C(=O)NC(C(N)=O)C(C)O)C(C)O (centres undefined) (Fmoc-F[X31]FW(For)K(Fmoc)T[X31]T-NH2; configuration not given here)	> 100 µM	> 100 µM	> 100 µM	> 100 µM	> 100 µM		> 100 µM	> 100 µM	> 100 µM	> 100 µM	> 100 µM	> 100 µM	> 100 µM	64.5 µM	62.4 µM
CC/C=C/C(/C=C/C[C@]1(CC)C[C@H](CC)[C@H](CC(=O)O)OO1)CC (some centres undefined)	3.32 µM	4.79 µM	4.17 µM	5.02 µM	9.11 µM	4.82 µM		10.1 µM	3.98 µM	12 µM	4.43 µM	6.04 µM	3 µM	3.68 µM	4.72 µM
Cc1nc2nn(C)cc2c(=O)n1/N=C/c1ccccc1	> 100 µM		> 100 µM	> 100 µM	> 100 µM		> 100 µM	> 100 µM	> 100 µM	> 100 µM	> 100 µM	> 100 µM	> 100 µM	> 100 µM	
